Results taken from PubChem BioAssay AID330 (DTP/NCI, 2004).
“And” between values parts separate entries of the source, which are not always exact repeats. Identical values can stand only once. Inconclusive results and toxic doses are left out.

Tested on: P388 leukemia ip, CD2F1 mice, survival T/C
Assay: NCI In Vivo Anticancer Drug Screen. Data for tumor model P388 Leukemia (intraperitoneal) in CD2F1 (CDF1) mice
Settings: endpoint: median survival time, higher = longer survival
How it was run: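 Mice carrying the transplanted tumor received test compound or vehicle. Survival was recorded in each group, and the value is the treated-group measurement divided by that of the vehicle-treated control group.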

[1] = dose: 50.0 mg/kg/injection, schedule: Q01DX009 (ip), vehicle: saline with Tween-80
[2] = dose: 100.0 mg/kg/injection, schedule: Q01DX009 (ip), vehicle: saline with Tween-80
[3] = dose: 50.0 mg/kg/injection, schedule: Q01DX009 (ip), vehicle: Klucel (hydroxypropylcellulose) (HPC)

Q: How did the T/C (dose: 2.0 micrograms/kg/injection, schedule: Q01DX009 (ip), vehicle: distilled water + alcohol) turn out when `COc1cc2cc(c1Cl)N1CC(=O)C(C)(O)C(=O)N(C)C(C)C(=O)OC(CC1=O)C1(C)OC1C(C)C1CC(O)(NC(=O)O1)C(OC)/C=C\C=C(\C)C2OC` (stereo not given) was run?
A: Its T/C is 151 % of control.

Q: What about the T/C (dose: 4.0 micrograms/kg/injection, schedule: Q01DX009 (ip), vehicle: distilled water + alcohol) of the same compound?
A: The T/C was 153 % of control and 168 % of control.

Q: What about the T/C (dose: 16.0 micrograms/kg/injection, schedule: Q01DX009 (ip), vehicle: distilled water + alcohol) of the same compound?
A: Its T/C is 210 % of control.

Q: `CC(C)CCNc1ncnc2c1cnn2C` was tested. Which T/C (dose: 25.0 mg/kg/injection, schedule: Q04DX003 (ip), vehicle: saline) did it give?
A: The T/C was 95 % of control.

Q: What about the T/C (dose: 50.0 mg/kg/injection, schedule: Q04DX003 (ip), vehicle: saline) of the same compound?
A: The T/C was 100 % of control.

Q: And the T/C (dose: 100.0 mg/kg/injection, schedule: Q04DX003 (ip), vehicle: saline with Tween-80)?
A: The T/C was 109 % of control.

Q: Which T/C [1] does the source give for `O=C(/C=C/c1ccc2c(c1)OCO2)C1CC1` here?
A: Its T/C is 92 % of control.

Q: And the T/C [2]?
A: Its T/C is 92 % of control.

Q: What about the T/C (dose: 200.0 mg/kg/injection, schedule: Q01DX009 (ip), vehicle: saline with Tween-80) of the same compound?
A: Its T/C is 96 % of control.

Q: How did the T/C (dose: 50.0 mg/kg/injection, schedule: Q01DX005 (ip), vehicle: saline with Tween-80) turn out when `O=C1CSCN1N1CSCC1=O` was run?
A: Its T/C is 101 % of control.

Q: What about the T/C (dose: 100.0 mg/kg/injection, schedule: Q01DX005 (ip), vehicle: saline with Tween-80) of the same compound?
A: The T/C was 102 % of control.

Q: And the T/C (dose: 200.0 mg/kg/injection, schedule: Q01DX005 (ip), vehicle: saline with Tween-80)?
A: The T/C was 98 % of control.

Q: How did the T/C (dose: 3.12 mg/kg/injection, schedule: Q01DX009 (ip), vehicle: saline) turn out when `CN(C)CC(CN1CCCC1)C(=O)c1ccccc1` (stereo not given) was run?
A: Its T/C is 96 % of control.

Q: And the T/C (dose: 3.13 mg/kg/injection, schedule: Q01DX009 (ip), vehicle: saline)?
A: The T/C was 96 % of control.

Q: And the T/C (dose: 6.25 mg/kg/injection, schedule: Q01DX009 (ip), vehicle: saline)?
A: Its T/C is 99 % of control and 116 % of control (2×).

Q: What about the T/C (dose: 12.5 mg/kg/injection, schedule: Q01DX009 (ip), vehicle: saline) of the same compound?
A: Its T/C is 114 % of control.

Q: And the T/C (dose: 25.0 mg/kg/injection, schedule: Q01DX009 (ip), vehicle: saline)?
A: The T/C was 112 % of control and 121 % of control and 122 % of control.

Q: And the T/C (dose: 50.0 mg/kg/injection, schedule: Q01DX009 (ip), vehicle: saline)?
A: The T/C was 102 % of control.

Q: With `CN(Cc1cnc2nc(N[Si](C)(C)C)nc(N[Si](C)(C)C)c2n1)c1ccc(C(=O)NC(CCC(=O)O[Si](C)(C)C)C(=O)O[Si](C)(C)C)cc1` (stereo not given) as the compound, how does the T/C (dose: 0.63 mg/kg/injection, schedule: Q01DX009 (ip), vehicle: saline) read?
A: Its T/C is 165 % of control.

Q: And the T/C (dose: 1.25 mg/kg/injection, schedule: Q01DX009 (ip), vehicle: saline)?
A: The T/C was 191 % of control.

Q: What about the T/C (dose: 1.9 mg/kg/injection, schedule: Q04DX003 (ip), vehicle: saline) of the same compound?
A: The T/C was 159 % of control.

Q: What about the T/C (dose: 2.5 mg/kg/injection, schedule: Q01DX009 (ip), vehicle: saline) of the same compound?
A: The T/C was 226 % of control.

Q: And the T/C (dose: 3.8 mg/kg/injection, schedule: Q04DX003 (ip), vehicle: saline)?
A: Its T/C is 177 % of control.

Q: What about the T/C (dose: 7.5 mg/kg/injection, schedule: Q04DX003 (ip), vehicle: saline) of the same compound?
A: The T/C was 195 % of control.

Q: What about the T/C (dose: 15.0 mg/kg/injection, schedule: Q04DX003 (ip), vehicle: saline) of the same compound?
A: The T/C was 218 % of control.

Q: What about the T/C (dose: 30.0 mg/kg/injection, schedule: Q04DX003 (ip), vehicle: saline) of the same compound?
A: The T/C was 236 % of control.

Q: What about the T/C (dose: 60.0 mg/kg/injection, schedule: Q04DX003 (ip), vehicle: saline) of the same compound?
A: Its T/C is 109 % of control.

Q: What does the source list for `COc1ccccc1-n1c(C)nc2[nH]ncc2c1=O`?
A: T/C (dose: 50.0 mg/kg/injection, schedule: Q01DX005 (ip), vehicle: Klucel (hydroxypropylcellulose) (HPC)): 101 % of control; T/C (dose: 100.0 mg/kg/injection, schedule: Q01DX005 (ip), vehicle: Klucel (hydroxypropylcellulose) (HPC)): 97 % of control; T/C (dose: 200.0 mg/kg/injection, schedule: Q01DX005 (ip), vehicle: Klucel (hydroxypropylcellulose) (HPC)): 96 % of control

Q: Which results are given for `NNC(=O)c1ccccc1O`?
A: T/C [1]: 100 % of control; T/C [2]: 100 % of control

Q: Which T/C [3] does the source give for `O=C1NCC(N2C(=O)CC3(CCCC3)C2=O)O1` (stereo not given) here?
A: Its T/C is 100 % of control.

Q: What about the T/C (dose: 100.0 mg/kg/injection, schedule: Q01DX009 (ip), vehicle: Klucel (hydroxypropylcellulose) (HPC)) of the same compound?
A: Its T/C is 94 % of control.

Q: And the T/C (dose: 200.0 mg/kg/injection, schedule: Q01DX009 (ip), vehicle: Klucel (hydroxypropylcellulose) (HPC))?
A: Its T/C is 91 % of control.

Q: `CC(=O)OCc1c(COC(C)=O)c(-c2ccc(Cl)cc2)n2c1CCC2` was tested. Which T/C [3] did it give?
A: Its T/C is 118 % of control.

Q: For `O=C(c1ccncc1)c1cc(Cl)c(Cl)cc1Cl`, which T/C (dose: 50.0 mg/kg/injection, schedule: Q04DX002 (ip), vehicle: saline with Tween-80) is on record?
A: Its T/C is 102 % of control.

Q: What about the T/C (dose: 100.0 mg/kg/injection, schedule: Q04DX002 (ip), vehicle: saline with Tween-80) of the same compound?
A: Its T/C is 93 % of control.

Q: What about the T/C (dose: 200.0 mg/kg/injection, schedule: Q04DX002 (ip), vehicle: saline with Tween-80) of the same compound?
A: Its T/C is 111 % of control.

Q: Which T/C (dose: 100.0 mg/kg/injection, schedule: Q04DX003 (ip), vehicle: saline) does the source give for `CC(/C=N\Nc1ccc(C(=O)O)cc1)=N/N(C)C` here?
A: Its T/C is 101 % of control.

Q: And the T/C (dose: 200.0 mg/kg/injection, schedule: Q04DX003 (ip), vehicle: saline)?
A: Its T/C is 98 % of control.

Q: What about the T/C (dose: 400.0 mg/kg/injection, schedule: Q04DX003 (ip), vehicle: saline) of the same compound?
A: The T/C was 101 % of control.

Q: How did the T/C (dose: 60.0 mg/kg/injection, schedule: Q01DX005 (ip), vehicle: saline with Tween-80) turn out when `O=c1[nH]c2c([N+](=O)[O-])cc(Cl)cc2nc1/C=C(\O)c1ccc2ccccc2c1` was run?
A: The T/C was 98 % of control.

Q: What about the T/C (dose: 120.0 mg/kg/injection, schedule: Q01DX005 (ip), vehicle: saline with Tween-80) of the same compound?
A: Its T/C is 90 % of control.

Q: And the T/C (dose: 240.0 mg/kg/injection, schedule: Q01DX005 (ip), vehicle: saline with Tween-80)?
A: The T/C was 99 % of control.
